Measured values published in ChEMBL document CHEMBL1201862, “PubChem BioAssay data set” (2004).
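Interpolation was linear, between the two tested concentrations surrounding the appropriate level; five concentrations were tested over 48 hours in 96-well plates. Abbreviation: GI50, concentration required for 50% inhibition of growth.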 Active and inactive are the calls of the source. No stated cut-off is given here; in the data, active = GI50 up to about 1.1 µM and inactive = higher.

Experiments:
Assay in all cases: NCI anticancer screen, dose series, 48 h
[1] = system: Malme-3M
[2] = system: OVCAR-5
[3] = system: SK-MEL-2
[4] = system: SF-268
[5] = system: SF-295
[6] = system: KM12
[7] = system: NCI-H23
[8] = system: SW-620
[9] = system: COLO 205
[10] = system: MOLT-4
[11] = system: SK-MEL-28
[12] = system: 786-0
[13] = system: M14
[14] = system: CCRF-CEM
[15] = system: A549
[16] = system: A498
[17] = system: T47D
[18] = system: HL-60

Structure (SMILES) | GI50 [1] | GI50 [2] | GI50 [3] | GI50 [4] | GI50 [5] | GI50 [6] | GI50 [7] | GI50 [8] | GI50 [9] | GI50 [10] | GI50 [11] | GI50 [12] | GI50 [13] | GI50 [14] | GI50 [15] | GI50 [16] | GI50 [17] | GI50 [18]
CC(C)CC1[C@@H](OCc2ccccc2)COS(=O)N1Cc1ccccc1 (stereo partly drawn) | 23.3 µM (inactive) | > 100 µM (inactive) | 31 µM (inactive) | 32.6 µM (inactive) | 46.2 µM (inactive) | 26.8 µM (inactive) | 39.6 µM (inactive) | 39.8 µM (inactive) | 57 µM (inactive) | 37 µM (inactive) | 51.3 µM (inactive) | 31.2 µM (inactive) | 51.4 µM (inactive) | 57.1 µM (inactive) | 46.6 µM (inactive) | – | – | –
CC1CN=C(N(C)C(=O)Nc2ccc(Cl)c(Cl)c2)S1 (stereo not drawn) | 46.5 µM (inactive) | 15.2 µM (inactive) | 17.4 µM (inactive) | 27.9 µM (inactive) | 30.9 µM (inactive) | 32.4 µM (inactive) | 32.3 µM (inactive) | 29.5 µM (inactive) | 40.8 µM (inactive) | 27.9 µM (inactive) | 16.6 µM (inactive) | 35.6 µM (inactive) | 0.127 µM (active) | 33.3 µM (inactive) | 27.7 µM (inactive) | 48.4 µM (inactive) | 19.3 µM (inactive) | 22.5 µM (inactive)
NC(CCc1ncc(-c2ccccc2)s1)C(=O)O (stereo not drawn) | > 100 µM (inactive) | – | – | – | > 100 µM (inactive) | > 100 µM (inactive) | > 100 µM (inactive) | > 100 µM (inactive) | > 100 µM (inactive) | > 100 µM (inactive) | > 100 µM (inactive) | > 100 µM (inactive) | > 100 µM (inactive) | > 100 µM (inactive) | > 100 µM (inactive) | > 100 µM (inactive) | – | > 100 µM (inactive)
CCOC(=O)C(=O)/C(=C/NC(=S)Nc1ccc(Cl)c(Cl)c1)C(=O)OCC | > 100 µM (inactive) | > 100 µM (inactive) | 69.2 µM (inactive) | > 100 µM (inactive) | > 100 µM (inactive) | 86.5 µM (inactive) | 70 µM (inactive) | 87.9 µM (inactive) | 67.9 µM (inactive) | 29.4 µM (inactive) | > 100 µM (inactive) | 89.7 µM (inactive) | 75.3 µM (inactive) | 53.3 µM (inactive) | > 100 µM (inactive) | – | – | 15.9 µM (inactive)
O=C(CSCC(=O)N/N=C\c1ccc(F)cc1F)N/N=C\c1ccc(F)cc1F | > 100 µM (inactive) | – | > 100 µM (inactive) | > 100 µM (inactive) | > 100 µM (inactive) | > 100 µM (inactive) | > 100 µM (inactive) | > 100 µM (inactive) | > 100 µM (inactive) | > 100 µM (inactive) | > 100 µM (inactive) | > 100 µM (inactive) | > 100 µM (inactive) | > 100 µM (inactive) | > 100 µM (inactive) | > 100 µM (inactive) | > 100 µM (inactive) | > 100 µM (inactive)
O=C1C2=Cc3ccccc3CCN2c2ccc([N+](=O)[O-])cc21 | 32.7 µM (inactive) | > 100 µM (inactive) | – | 91.4 µM (inactive) | 36.6 µM (inactive) | > 100 µM (inactive) | 38.5 µM (inactive) | > 100 µM (inactive) | 43.2 µM (inactive) | 45.7 µM (inactive) | > 100 µM (inactive) | > 100 µM (inactive) | > 100 µM (inactive) | 53.3 µM (inactive) | 31.3 µM (inactive) | 35.9 µM (inactive) | – | 66.5 µM (inactive)
CCCOP1(=O)C=CC(Cl)=C(C)C1 (stereo not drawn) | 21 µM (inactive) | 20.7 µM (inactive) | 23.9 µM (inactive) | 46.6 µM (inactive) | 45.8 µM (inactive) | 20.8 µM (inactive) | 30.8 µM (inactive) | 19.3 µM (inactive) | 18.4 µM (inactive) | 10.9 µM (inactive) | 19.3 µM (inactive) | 27.7 µM (inactive) | 33 µM (inactive) | 11.9 µM (inactive) | > 54.3 µM (inactive) | 82.8 µM (inactive) | – | 7.53 µM (inactive)
C=CCNC(=S)N/C=C(\C(=O)OCC)C(=O)C(=O)OCC | > 100 µM (inactive) | > 100 µM (inactive) | > 100 µM (inactive) | > 100 µM (inactive) | > 100 µM (inactive) | > 100 µM (inactive) | > 100 µM (inactive) | > 100 µM (inactive) | > 100 µM (inactive) | > 100 µM (inactive) | > 100 µM (inactive) | > 100 µM (inactive) | > 100 µM (inactive) | > 100 µM (inactive) | > 100 µM (inactive) | – | > 100 µM (inactive) | > 100 µM (inactive)
CC1=[N+]([O-])C2(CCCC2)N(O)C1(C)C | > 100 µM (inactive) | > 100 µM (inactive) | > 100 µM (inactive) | > 100 µM (inactive) | > 100 µM (inactive) | > 100 µM (inactive) | > 100 µM (inactive) | > 100 µM (inactive) | > 100 µM (inactive) | – | > 100 µM (inactive) | > 100 µM (inactive) | > 100 µM (inactive) | – | > 100 µM (inactive) | – | > 100 µM (inactive) | > 100 µM (inactive)
CCSCCCCC(c1ccc(O)cc1)C(C)(CC)c1ccc(O)cc1 (stereo not drawn) | 20.3 µM (inactive) | 24.4 µM (inactive) | 16 µM (inactive) | 20.3 µM (inactive) | 31.3 µM (inactive) | 21.6 µM (inactive) | 19.6 µM (inactive) | 21.4 µM (inactive) | 20.4 µM (inactive) | 32.1 µM (inactive) | 18 µM (inactive) | 24.4 µM (inactive) | 31 µM (inactive) | 18.6 µM (inactive) | 25.4 µM (inactive) | > 100 µM (inactive) | 14.4 µM (inactive) | > 100 µM (inactive)
C[C@@H]([C@H]1CC[C@@]2(C)[C@@H]3CC[C@@H]4C(=CC3=CC[C@]12C)CC[C@H](N(C)C)C4(C)C)N(C)C [BUXAMINE A] | > 100 µM (inactive) | > 100 µM (inactive) | – | > 100 µM (inactive) | > 100 µM (inactive) | > 100 µM (inactive) | > 100 µM (inactive) | > 100 µM (inactive) | > 100 µM (inactive) | > 100 µM (inactive) | > 100 µM (inactive) | > 100 µM (inactive) | > 100 µM (inactive) | > 100 µM (inactive) | – | – | > 100 µM (inactive) | > 100 µM (inactive)
Oc1cnc2c(O)cccc2c1 [JINEOL] | 34.8 µM (inactive) | 24.9 µM (inactive) | 64.4 µM (inactive) | 33.2 µM (inactive) | 36.8 µM (inactive) | 12.8 µM (inactive) | – | 45.5 µM (inactive) | – | 41.7 µM (inactive) | 76.6 µM (inactive) | 35.5 µM (inactive) | 24.5 µM (inactive) | – | 40.7 µM (inactive) | > 100 µM (inactive) | 29 µM (inactive) | 31.5 µM (inactive)
